Data on 10 compounds can be found in ChEMBL document CHEMBL1275573, “Inhibition of herpesvirus replication by hexadecyloxypropyl esters of purine- and pyrimidine-based phosphonomethoxyethyl nucleoside phosphonates” (Antimicrob Agents Chemother, 2008).

The term CC50 denotes the concentration that lowers cell viability or growth by half. As a reminder, the EC50 is the concentration that produces a half-maximal response. A low value points to greater potency. As usually defined, the IC50 is the concentration needed to halve the response being measured. Higher therefore signals weaker potency in that assay.

Data set [1] in a line: Cytotoxicity against human HFF cells after 7 days by neutral red dye method. In kind it is cell-based.
Data set [2] can be described thus: Cytotoxicity against human HFF cells. In kind it is cell-based.
Data set [3] relates to Daudi. The experiment in a line: Cytotoxicity against human Daudi cell after 4 hrs by MTS assay. Format: functional. (Formazan colour is commonly taken as a measure of viable cells.)
A short description of data set [4]: Cytotoxicity against human HSB2 cell after 4 hrs by MTS assay. Format: functional. Conditions: CCRF-HSB-2, 4 h.
For data set [5], the system named is MOLT-3. The experiment in a line: Cytotoxicity against human MOLT3 cell after 4 hrs by MTS assay. As to conditions: MOLT-3, 4 h. In kind it is functional.
Data set [6] has as its system Human alphaherpesvirus 1. The experiment in a line: Antiviral activity against herpes simplex virus 1 E-377 infected in HFF cells by plaque reduction assay. Conditions: Human alphaherpesvirus 1, E-377, HFF. In kind it is functional, organism-based.
The nature of data set [7]: Selectivity index, ratio of EC50 for herpes simplex virus type 1 E-377 to CC50 for human HFF cell.
The subject of data set [8] is Human alphaherpesvirus 2. Description: Antiviral activity against herpes simplex virus 2 MS infected in HFF cells by plaque reduction assay. Format: functional, organism-based. Conditions: Human alphaherpesvirus 2, MS. On the technique in general: In a plaque reduction assay, fewer plaques than in the control indicate reduced infectivity or spread.
A short description of data set [9]: Selectivity index, ratio of EC50 for herpes simplex virus type 2 MS to CC50 for human HFF cell.
In data set [10] the test system is Human alphaherpesvirus 3. The experiment in a line: Antiviral activity against Varicella zoster virus Ellen infected in HFF cells by plaque reduction assay. Format: functional, organism-based. As to conditions: Human alphaherpesvirus 3, Ellen.
The test system of data set [11] is Human betaherpesvirus 5. The experiment in a line: Antiviral activity against Human cytomegalovirus AD169 infected in HFF cells by plaque reduction assay. Conditions: Human betaherpesvirus 5, AD169, HFF. Format: functional, organism-based.
Data set [12] is described as follows: Antiviral activity against Murine cytomegalovirus Smith infected in HFF cells by plaque reduction assay. Format: functional, cell-based, Murine cytomegalovirus (strain Smith). Conditions: Murid betaherpesvirus 1, HFF.
Data set [13] can be described thus: Selectivity index, ratio of EC50 for Murine cytomegalovirus Smith to CC50 for human HFF cell.
The nature of data set [14]: Antiviral activity against Epstein-Barr virus p3hr-1 infected in human daudi cells. Conditions: human gammaherpesvirus 4, Daudi. Format: functional, cell-based, Epstein-barr virus strain p3hr-1.
The nature of data set [15]: Selectivity index, ratio of EC50 for Epstein-Barr virus P3HR-1 to CC50 for human daudi cell.
Data set [16] is described as follows: Antiviral activity against Human herpesvirus 6A GS infected in human HSB-2 cells. In kind it is functional, cell-based. As to conditions: Human betaherpesvirus 6A, HSB2.
A short description of data set [17]: Antiviral activity against Human herpesvirus 6B Z29 infected in human MOLT-3 cells. In kind it is functional, cell-based. Conditions: Human betaherpesvirus 6B, Z29, MOLT-3.
Data set [18] is described as follows: Selectivity index, ratio of EC50 for Human herpesvirus 6B Z29 to CC50 for human MOLT-3 cells.

In turn, `CCCCCCCCCCCCCCCCOCCCOP(=O)(O)COCCn1cnc2c(N)nc(N)nc21` showed a CC50 at 168 h in data set [1] of 120 µM. Moreover, the CC50 in [2] is 170 µM; in data set [3] it was > 50 µM; in [4], 6.4 µM; in data set [5] it was 51 µM. Further, the EC50 in [6] came out at 0.6 µM; in [8], 0.4 µM; in data set [10], 0.3 µM; in data set [11], 0.5 µM; in data set [12], 0.5 µM; in data set [14] it was 0.8 µM. In addition, the EC50 in data set [16] stood at 2 µM; in [17], 34 µM. Moreover, the “Selectivity Index” value in data set [7] is on record as 200; in [9], 300; in [13] it was 240; in data set [15], >63; in [18], 1.

As for `Nc1nc(=O)n(CCOCP(=O)(O)O)cc1F`, the CC50 was 220 µM in data set [2], > 41 µM in data set [4] and > 50 µM in data set [5]. For the same compound, the concentration for a half-maximal effect (EC50) in data set [11] was > 20 µM; in data set [12] it was 78 µM; in [14], > 50 µM; in data set [16] it was > 50 µM; in data set [17], > 50 µM. Also, the “Selectivity Index” value in data set [13] amounted to 2.8; in data set [18], 1.

For the compound `CCCCCCCCCCCCCCCCOCCCOP(=O)(O)COCCn1cc(Br)c(N)nc1=O`, the cytotoxic concentration (CC50) at 168 h in [1] is > 300 µM. Further, the CC50 in data set [2] is 35 µM; in data set [3] it was > 100 µM; in data set [4], > 41 µM; in data set [5] it was > 50 µM. In addition, the EC50 in data set [6] came out at 1.2 µM; in data set [8], 18 µM; in data set [10] it was 42 µM; in [11], 4.8 µM; in data set [12], 1.3 µM; in data set [14], 0.03 µM. In addition, the results for the EC50 in [16] and in [17] were 38 µM and > 45 µM, respectively. Moreover, the “Selectivity Index” value in [7] is >250; in data set [9], >17; in [13], >230; in data set [15] it was >3400; in data set [18] it was 1.

Compound `CCCCCCCCCCCCCCCCOCCCOP(=O)(O)COCCn1cc(F)c(N)nc1=O` displayed a CC50 at 168 h in data set [1] of 35 µM. Also, the CC50 in [2] was 33 µM; in data set [3], > 100 µM; in data set [4], 22.6 µM; in data set [5], > 50 µM. For the same compound, the EC50 is > 12 µM in data set [6]; > 12 µM in data set [8]; 2.6 µM in [10]; 2 µM in [11]; 0.08 µM in [12]; 1.3 µM in data set [14]. The figures for the EC50 in data set [16] and in data set [17] were 7.2 µM and 37 µM, respectively. Besides, the “Selectivity Index” value is recorded as <3 in [7]; <3 in data set [9]; 440 in [13]; >77 in data set [15]; >1 in data set [18].

For `Nc1nc(N)c2ncn(CCOCP(=O)(O)O)c2n1` [PMEDAP], the CC50 at 168 h in data set [1] is > 100 µM. The CC50 in data set [2] was 170 µM; in data set [3], > 50 µM; in data set [4], > 56 µM; in data set [5], 39 µM. For the same compound, the EC50 in data set [6] is > 10 µM; in data set [8], > 10 µM; in [10], 2.9 µM; in [11] it was 13 µM; in [12], 0.2 µM; in [14], 1.2 µM. In addition, the figures for the EC50 in data set [16] and in [17] were 15 µM and 28 µM, respectively. Further, the “Selectivity Index” value in data set [7] is given as >10; in data set [9] it was >10; in data set [13] it was >500; in data set [15], >42; in [18], 1.

Turning to `Nc1nc(=O)n(CCOCP(=O)(O)O)cc1Br`, the CC50 at 168 h in data set [1] is > 300 µM. Also, the CC50 in data set [2] was found to be 200 µM; in data set [3], 27 µM; in data set [4], 3.9 µM; in data set [5], 84 µM. Further, the EC50 in [6] was > 60 µM; in data set [8] it was > 60 µM; in [10], 38 µM; in [11], > 20 µM; in data set [12], > 20 µM; in data set [14], 24 µM. Besides, the EC50 was > 50 µM in data set [16] and > 47 µM in data set [17]. The “Selectivity Index” value in [7] is >5; in data set [9], >5; in data set [13] it was <150; in data set [15] it was 1.1; in data set [18], <2.

Take `CCCCCCCCCCCCCCCCOCCCOP(=O)(O)COCCn1cnc2c(NC3CC3)nc(N)nc21`: in data set [1], it took 110 µM to reach half-maximal cytotoxicity (CC50 at 168 h). Besides, the half-maximal cytotoxic concentration (CC50) in data set [2] was 26 µM; in data set [3], > 50 µM; in data set [4], 0.05 µM; in data set [5], 0.3 µM. Also, the EC50 in [6] is 0.1 µM; in data set [8], 0.2 µM; in data set [10] it was 0.03 µM; in data set [11], 0.02 µM; in data set [12], < 0.03 µM; in data set [14], 0.0007 µM. The EC50 in data set [16] and in data set [17] was 0.05 µM each time. The “Selectivity Index” value is on record as 1100 in data set [7]; 550 in [9]; >3700 in [13]; >71000 in data set [15]; 6 in [18].

As to `Nc1ccn(CCOCP(=O)(O)O)c(=O)n1`, the 50% cytotoxic concentration (CC50) at 168 h in data set [1] was > 300 µM. Besides, the half-maximal cytotoxic concentration (CC50) in data set [2] was 220 µM; in data set [3], > 100 µM; in [4], > 50 µM; in [5] it was > 50 µM. For the same compound, the EC50 in data set [6] was > 300 µM; in data set [8] it was > 300 µM; in data set [10], > 300 µM; in data set [11], > 20 µM; in [12], 63 µM; in data set [14], > 41 µM. Moreover, the EC50 in [17] was > 50 µM. Moreover, the “Selectivity Index” value in data set [7] is 1; in [9], 1; in [13], >480; in data set [15], <2.4; in data set [18] it was 1. The IC50 in data set [16] is > 50 µM.

With `CCCCCCCCCCCCCCCCOCCCOP(=O)(O)COCCn1ccc(N)nc1=O`, in [1], the CC50 at 168 h is > 300 µM. Moreover, the CC50 is 200 µM in data set [2], > 100 µM in [3], > 50 µM in [4] and > 50 µM in data set [5]. Also, the EC50 is 260 µM in data set [6]; 35 µM in data set [8]; > 300 µM in data set [10]; > 20 µM in [11]; > 20 µM in data set [12]; > 50 µM in [14]. Moreover, the EC50 in data set [16] and in data set [17] was > 50 µM in each case. Further, the “Selectivity Index” value in data set [7] is listed as >1.1; in [9] it was >9; in [13], <150; in [15] it was <2; in data set [18], 1.

Turning to `Nc1nc(NC2CC2)c2ncn(CCOCP(=O)(O)O)c2n1`, the CC50 at 168 h in [1] is > 100 µM. Also, the CC50 in [2] turned out to be 150 µM; in data set [3] it was 20 µM; in data set [4] it was 3 µM; in [5], 8.5 µM. Further, the EC50 in data set [6] was 4 µM; in data set [8] it was 7.9 µM; in [10], 0.8 µM; in data set [11] it was 0.4 µM; in [12], < 0.06 µM; in data set [14], 0.1 µM. The EC50 in [16] turned out to be 1 µM; in data set [17], 6.4 µM. For the same compound, the “Selectivity Index” value is listed as >25 in data set [7]; >13 in data set [9]; >1700 in [13]; 200 in [15]; 1 in data set [18].
